Peptide text beside a SMILES is read from it.
Assays:
[1] = system: human red blood cells (hRBC); assay: Hemolysis of human red blood cells; format: cell-based; conditions: red cells of human, 1 h
Procedure, shortened: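 PBS-washed human red blood cells (20% v/v) were incubated with peptide at 200 μg/mL for 1 h at 37 °C with shaking. Supernatant OD was read at 540 nm after 8-fold dilution. Hemolysis is expressed as percent of the water control.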

[2] = system: Escherichia coli MCR-1 Af 45; conditions: Mueller-Hinton broth II, 18-20 hours at 35° C.
Procedure, shortened: (§1)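 Two-fold serial dilutions of peptide, in water with polysorbate 80 (0.002% final), met bacteria adjusted to 0.5 McFarland then diluted to about 5×10^5 CFU/mL. Medium was cation-adjusted Mueller-Hinton II broth; peptide stocks were 1 mg/mL in sterile water.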

[3] = system: Escherichia coli ATCC 25922; conditions: ATCC 25922
Procedure, shortened: as §1

[4] = system: Klebsiella pneumoniae SSI3010; conditions: SSI3010
Procedure, shortened: as §1

SMILES | Hemolysis at 0.2 g/L [1] [%] | Escherichia coli MCR-1 Af 45 MIC [2] [µg/mL] | Escherichia coli ATCC 25922 MIC [3] [µg/mL] | Klebsiella pneumoniae SSI3010 MIC [4] [µg/mL]
CC[C@H](C)[C@H](NC(=O)[C@@H]1C[C@@H](O)CN1C(=O)[C@@H](N)C(C)C)C(=O)N[C@@H](CC(N)=O)C(=O)N[C@@H](Cc1ccc(O)cc1)C(=O)N[C@@H]1C(=O)N[C@@H](CC(N)=O)C(=O)N[C@@H](CCCNC(=N)N)C(=O)N[C@@H](CCN)C(=O)N[C@@H]([C@@H](C)O)C(=O)N[C@H](CCN)C(=O)N[C@@H](CCCCN)C(=O)N[C@H](C(=O)N[C@@H](CCN)C(=O)N[C@@H](CCCNC(=N)N)C(=O)N[C@@H](Cc2ccc(O)cc2)C(=O)O)CSSC1(C)C [Example 157] (HELM PEPTIDE1{V.[Hyp].I.N.Y.[Pen].N.R.[Dab].T.[NCC[C@@H](N[*:1])C(=O)[*:2]].K.C.[Dab].R.Y}$PEPTIDE1,PEPTIDE1,6:R3-13:R3$$$V2.0) | 0 | 0.125 | 0.125 | 0.5
CC[C@H](C)[C@H](NC(=O)[C@@H]1C[C@@H](O)CN1C(=O)[C@@H](N)C(C)C)C(=O)N[C@@H](CCN)C(=O)N[C@@H](Cc1ccc(O)cc1)C(=O)N[C@@H]1C(=O)N[C@@H](CC(N)=O)C(=O)N[C@@H](CCCNC(=N)N)C(=O)N[C@@H](CCN)C(=O)N[C@@H]([C@@H](C)O)C(=O)N[C@H](CCN)C(=O)N[C@@H](CCCCN)C(=O)N[C@H](C(=O)N[C@@H](CCN)C(=O)N[C@@H](CCCNC(=N)N)C(=O)N[C@@H](Cc2ccc(O)cc2)C(=O)O)CSSC1(C)C [Example 158] (HELM PEPTIDE1{V.[Hyp].I.[Dab].Y.[Pen].N.R.[Dab].T.[NCC[C@@H](N[*:1])C(=O)[*:2]].K.C.[Dab].R.Y}$PEPTIDE1,PEPTIDE1,6:R3-13:R3$$$V2.0) | 0 | 0.125 | 0.125 | 0.5
CC[C@H](C)[C@H](NC(=O)[C@@H]1C[C@@H](O)CN1C(=O)[C@@H](N)C(C)C)C(=O)N[C@@H](CCCCN)C(=O)N[C@@H](Cc1ccc(O)cc1)C(=O)N[C@@H]1C(=O)N[C@@H](CC(N)=O)C(=O)N[C@@H](CCCNC(=N)N)C(=O)N[C@@H](CCN)C(=O)N[C@@H]([C@@H](C)O)C(=O)N[C@H](CCN)C(=O)N[C@@H](CCCCN)C(=O)N[C@H](C(=O)N[C@@H](CCN)C(=O)N[C@@H](CCCNC(=N)N)C(=O)N[C@@H](Cc2ccc(O)cc2)C(=O)O)CSSC1(C)C [Example 159] (HELM PEPTIDE1{V.[Hyp].I.K.Y.[Pen].N.R.[Dab].T.[NCC[C@@H](N[*:1])C(=O)[*:2]].K.C.[Dab].R.Y}$PEPTIDE1,PEPTIDE1,6:R3-13:R3$$$V2.0) | 0 | 0.25 | 0.125 | 0.5
CC[C@H](C)[C@H](NC(=O)[C@@H]1C[C@@H](O)CN1C(=O)[C@@H](N)C(C)C)C(=O)N[C@H](C(=O)N[C@@H](Cc1c[nH]c2ccccc12)C(=O)N[C@@H]1C(=O)N[C@@H](CC(N)=O)C(=O)N[C@@H](CCCNC(=N)N)C(=O)N[C@@H](CCN)C(=O)N[C@@H]([C@@H](C)O)C(=O)N[C@H](CCN)C(=O)N[C@@H](CCCCN)C(=O)N[C@H](C(=O)N[C@@H](CCN)C(=O)N[C@@H](CCCNC(=N)N)C(=O)N[C@@H](Cc2ccc(O)cc2)C(=O)O)CSSC1(C)C)[C@@H](C)O [Example 160] (HELM PEPTIDE1{V.[Hyp].I.T.W.[Pen].N.R.[Dab].T.[NCC[C@@H](N[*:1])C(=O)[*:2]].K.C.[Dab].R.Y}$PEPTIDE1,PEPTIDE1,6:R3-13:R3$$$V2.0) | 0 | 0.25 | 0.25 | 0.5
CC[C@H](C)[C@H](NC(=O)[C@@H]1C[C@@H](O)CN1C(=O)[C@@H](N)C(C)C)C(=O)N[C@H](C(=O)N[C@@H](Cc1ccc(O)cc1)C(=O)N[C@@H]1C(=O)N[C@@H](C)C(=O)N[C@@H](CCCNC(=N)N)C(=O)N[C@@H](CCN)C(=O)N[C@@H]([C@@H](C)O)C(=O)N[C@H](CCN)C(=O)N[C@@H](CCCCN)C(=O)N[C@H](C(=O)N[C@@H](CCN)C(=O)N[C@@H](CCCNC(=N)N)C(=O)N[C@@H](Cc2ccc(O)cc2)C(=O)O)CSSC1(C)C)[C@@H](C)O [Example 161] (HELM PEPTIDE1{V.[Hyp].I.T.Y.[Pen].A.R.[Dab].T.[NCC[C@@H](N[*:1])C(=O)[*:2]].K.C.[Dab].R.Y}$PEPTIDE1,PEPTIDE1,6:R3-13:R3$$$V2.0) | 0 | 0.125 | 0.25 | 0.5
CC[C@H](C)[C@H](NC(=O)[C@@H]1C[C@@H](O)CN1C(=O)[C@@H](N)C(C)C)C(=O)N[C@H](C(=O)N[C@@H](Cc1ccc(O)cc1)C(=O)N[C@@H]1C(=O)N[C@@H](CC(C)C)C(=O)N[C@@H](CCCNC(=N)N)C(=O)N[C@@H](CCN)C(=O)N[C@@H]([C@@H](C)O)C(=O)N[C@H](CCN)C(=O)N[C@@H](CCCCN)C(=O)N[C@H](C(=O)N[C@@H](CCN)C(=O)N[C@@H](CCCNC(=N)N)C(=O)N[C@@H](Cc2ccc(O)cc2)C(=O)O)CSSC1(C)C)[C@@H](C)O [Example 162] (HELM PEPTIDE1{V.[Hyp].I.T.Y.[Pen].L.R.[Dab].T.[NCC[C@@H](N[*:1])C(=O)[*:2]].K.C.[Dab].R.Y}$PEPTIDE1,PEPTIDE1,6:R3-13:R3$$$V2.0) | 0 | 0.125 | 0.25 | 0.25
CC[C@H](C)[C@@H]1NC(=O)[C@@H](NC(=O)[C@H](Cc2ccc(O)cc2)NC(=O)[C@@H](NC(=O)[C@@H](NC(=O)[C@@H]2C[C@@H](O)CN2C(=O)[C@@H](N)C(C)C)[C@@H](C)CC)[C@@H](C)O)C(C)(C)SSC[C@@H](C(=O)N[C@@H](CCN)C(=O)N[C@@H](CCCNC(=N)N)C(=O)N[C@@H](Cc2ccc(O)cc2)C(=O)O)NC(=O)[C@H](CCCCN)NC(=O)[C@@H](CCN)NC(=O)[C@H]([C@@H](C)O)NC(=O)[C@H](CCN)NC(=O)[C@H](CCCNC(=N)N)NC1=O [Example 163] (HELM PEPTIDE1{V.[Hyp].I.T.Y.[Pen].I.R.[Dab].T.[NCC[C@@H](N[*:1])C(=O)[*:2]].K.C.[Dab].R.Y}$PEPTIDE1,PEPTIDE1,6:R3-13:R3$$$V2.0) | 0 | 0.125 | 0.125 | 0.5
CC[C@H](C)[C@H](NC(=O)[C@@H]1C[C@@H](O)CN1C(=O)[C@@H](N)C(C)C)C(=O)N[C@H](C(=O)N[C@@H](Cc1ccc(O)cc1)C(=O)N[C@@H]1C(=O)N[C@@H](CO)C(=O)N[C@@H](CCCNC(=N)N)C(=O)N[C@@H](CCN)C(=O)N[C@@H]([C@@H](C)O)C(=O)N[C@H](CCN)C(=O)N[C@@H](CCCCN)C(=O)N[C@H](C(=O)N[C@@H](CCN)C(=O)N[C@@H](CCCNC(=N)N)C(=O)N[C@@H](Cc2ccc(O)cc2)C(=O)O)CSSC1(C)C)[C@@H](C)O [Example 164] (HELM PEPTIDE1{V.[Hyp].I.T.Y.[Pen].S.R.[Dab].T.[NCC[C@@H](N[*:1])C(=O)[*:2]].K.C.[Dab].R.Y}$PEPTIDE1,PEPTIDE1,6:R3-13:R3$$$V2.0) | 0 | 0.25 | 0.125 | 0.25
CC[C@H](C)[C@H](NC(=O)[C@@H]1C[C@@H](O)CN1C(=O)[C@@H](N)C(C)C)C(=O)N[C@H](C(=O)N[C@@H](Cc1ccc(O)cc1)C(=O)N[C@@H]1C(=O)N[C@@H]([C@@H](C)O)C(=O)N[C@@H](CCCNC(=N)N)C(=O)N[C@@H](CCN)C(=O)N[C@@H]([C@@H](C)O)C(=O)N[C@H](CCN)C(=O)N[C@@H](CCCCN)C(=O)N[C@H](C(=O)N[C@@H](CCN)C(=O)N[C@@H](CCCNC(=N)N)C(=O)N[C@@H](Cc2ccc(O)cc2)C(=O)O)CSSC1(C)C)[C@@H](C)O [Example 165] (HELM PEPTIDE1{V.[Hyp].I.T.Y.[Pen].T.R.[Dab].T.[NCC[C@@H](N[*:1])C(=O)[*:2]].K.C.[Dab].R.Y}$PEPTIDE1,PEPTIDE1,6:R3-13:R3$$$V2.0) | 0 | 0.125 | 0.125 | 0.5
CC[C@H](C)[C@H](NC(=O)[C@@H]1C[C@@H](O)CN1C(=O)[C@@H](N)C(C)C)C(=O)N[C@H](C(=O)N[C@@H](Cc1ccc(O)cc1)C(=O)N[C@@H]1C(=O)N[C@@H](CCCCN)C(=O)N[C@@H](CCCNC(=N)N)C(=O)N[C@@H](CCN)C(=O)N[C@@H]([C@@H](C)O)C(=O)N[C@H](CCN)C(=O)N[C@@H](CCCCN)C(=O)N[C@H](C(=O)N[C@@H](CCN)C(=O)N[C@@H](CCCNC(=N)N)C(=O)N[C@@H](Cc2ccc(O)cc2)C(=O)O)CSSC1(C)C)[C@@H](C)O [Example 166] (HELM PEPTIDE1{V.[Hyp].I.T.Y.[Pen].K.R.[Dab].T.[NCC[C@@H](N[*:1])C(=O)[*:2]].K.C.[Dab].R.Y}$PEPTIDE1,PEPTIDE1,6:R3-13:R3$$$V2.0) | 0 | 0.125 | 0.25 | 0.5

Reference: US20230295234A1, “ANTIMICROBIAL PEPTIDOMIMETICS” (SPEXIS AG, priority 2020, published 2023)
